Experimental data from PubChem BioAssay AID328 (DTP/NCI, 2004).
Values joined by “and” are separate entries in the source; they are usually repeats but may differ in a detail not shown here. Identical values can stand only once. Inconclusive results and toxic doses are left out. Non-standard residues stand in square brackets, D forms with d. Residues, ends and D or L forms follow the SMILES beside them. ξ: configuration not given here. *: point of attachment. Nphe = O=C(O)CNCc1ccccc1; ξF = NC(Cc1ccccc1)C(=O)O; Ms = CS(=O)(=O)*

Tested on: BDF1 mice, P388 leukemia ip, median survival T/C
Assay: NCI In Vivo Anticancer Drug Screen. Data for tumor model P388 Leukemia (intraperitoneal) in B6D2F1 (BDF1) mice
Details: endpoint: median survival time, higher = longer survival
In short: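 Antitumour effect was judged in vivo: survival in drug-treated mice, normalised to that of vehicle-dosed controls, gives the reported T/C.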

[1] = dose: 50.0 mg/kg/injection, schedule: Q01DX009 (ip), vehicle: saline
[2] = dose: 100.0 mg/kg/injection, schedule: Q01DX009 (ip), vehicle: saline
[3] = dose: 50.0 mg/kg/injection, schedule: Q01DX009 (ip), vehicle: saline with Tween-80
[4] = dose: 100.0 mg/kg/injection, schedule: Q01DX009 (ip), vehicle: saline with Tween-80
[5] = dose: 100.0 mg/kg/injection, schedule: Q04DX003 (ip), vehicle: saline with Tween-80
[6] = dose: 200.0 mg/kg/injection, schedule: Q01DX009 (ip), vehicle: saline with Tween-80
[7] = dose: 200.0 mg/kg/injection, schedule: Q04DX003 (ip), vehicle: saline with Tween-80
[8] = dose: 25.0 mg/kg/injection, schedule: Q01DX009 (ip), vehicle: saline
[9] = dose: 50.0 mg/kg/injection, schedule: Q04DX003 (ip), vehicle: saline
[10] = dose: 12.5 mg/kg/injection, schedule: Q01DX009 (ip), vehicle: saline
[11] = dose: 12.5 mg/kg/injection, schedule: Q04DX003 (ip), vehicle: saline
[12] = dose: 25.0 mg/kg/injection, schedule: Q04DX003 (ip), vehicle: saline

CS(=O)(=O)N(CC(=O)NC(Cc1ccccc1)C(=O)O)Cc1ccccc1 (stereo not drawn) (Ms-[Nphe]-[ξF]-OH)
T/C (dose: 12.5 mg/kg/injection, schedule: Q04DX003 (ip), vehicle: sodium bicarbonate): 100 % of control | T/C (dose: 25.0 mg/kg/injection, schedule: Q01DX009 (ip), vehicle: other): 114 % of control | T/C (dose: 25.0 mg/kg/injection, schedule: Q04DX003 (ip), vehicle: other): 94 % of control | T/C (dose: 25.0 mg/kg/injection, schedule: Q04DX003 (ip), vehicle: sodium bicarbonate): 106 % of control | T/C (dose: 50.0 mg/kg/injection, schedule: Q01DX009 (ip), vehicle: other): 100 % of control | T/C (dose: 50.0 mg/kg/injection, schedule: Q04DX003 (ip), vehicle: other): 103 % of control | T/C (dose: 50.0 mg/kg/injection, schedule: Q04DX003 (ip), vehicle: sodium bicarbonate): 104 % of control | T/C (dose: 100.0 mg/kg/injection, schedule: Q01DX009 (ip), vehicle: other): 114 % of control | T/C (dose: 100.0 mg/kg/injection, schedule: Q04DX003 (ip), vehicle: other): 106 % of control | T/C (dose: 100.0 mg/kg/injection, schedule: Q04DX003 (ip), vehicle: sodium bicarbonate): 96 % of control | T/C (dose: 200.0 mg/kg/injection, schedule: Q04DX003 (ip), vehicle: other): 104 % of control | T/C (dose: 200.0 mg/kg/injection, schedule: Q04DX003 (ip), vehicle: sodium bicarbonate): 98 % of control | T/C (dose: 400.0 mg/kg/injection, schedule: Q04DX003 (ip), vehicle: other): 103 % of control | T/C (dose: 400.0 mg/kg/injection, schedule: Q04DX003 (ip), vehicle: sodium bicarbonate): 90 % of control

COc1ccc2c(c1)C1(C)CCN(C)CC(C1)C2O (stereo not drawn)
T/C [1]: 96 % of control | T/C [2]: 89 % of control | T/C (dose: 200.0 mg/kg/injection, schedule: Q01DX009 (ip), vehicle: saline): 92 % of control

CCOP(=S)(OCC)Oc1cnn(C)c(=S)c1Cl
T/C (dose: 50.0 mg/kg/injection, schedule: Q01DX005 (ip), vehicle: saline with Tween-80): 98 % of control | T/C (dose: 100.0 mg/kg/injection, schedule: Q01DX005 (ip), vehicle: saline with Tween-80): 101 % of control | T/C (dose: 200.0 mg/kg/injection, schedule: Q01DX005 (ip), vehicle: saline with Tween-80): 108 % of control

N#Cc1cnn(CCO)c1N
T/C (dose: 100.0 mg/kg/injection, schedule: Q01DX009 (ip), vehicle: water): 90 % of control | T/C (dose: 100.0 mg/kg/injection, schedule: Q04DX003 (ip), vehicle: water): 100 % of control | T/C (dose: 200.0 mg/kg/injection, schedule: Q01DX009 (ip), vehicle: water): 113 % of control | T/C (dose: 200.0 mg/kg/injection, schedule: Q04DX003 (ip), vehicle: water): 100 % of control | T/C (dose: 400.0 mg/kg/injection, schedule: Q01DX009 (ip), vehicle: water): 109 % of control | T/C (dose: 400.0 mg/kg/injection, schedule: Q04DX003 (ip), vehicle: water): 104 % of control

CCCCNC(C)(C)C(SSSC(c1cccs1)C(C)(C)NCCCC)c1cccs1 (stereo not drawn)
T/C (dose: 44.0 mg/kg/injection, schedule: Q04DX003 (ip), vehicle: saline with Tween-80): 113 % of control | T/C [3]: 118 % of control | T/C (dose: 66.0 mg/kg/injection, schedule: Q04DX003 (ip), vehicle: saline with Tween-80): 100 % of control | T/C [4]: 122 % of control | T/C [5]: 118 % of control | T/C (dose: 150.0 mg/kg/injection, schedule: Q04DX003 (ip), vehicle: saline with Tween-80): 109 % of control | T/C [6]: 118 % of control | T/C [7]: 118 % of control | T/C (dose: 400.0 mg/kg/injection, schedule: Q04DX003 (ip), vehicle: saline with Tween-80): 122 % of control

COc1ccc(C(=O)C/C(=N\N(C(=O)c2ccc(OC)cc2)c2ccccc2)c2ccc(OC)cc2)cc1
T/C [3]: 104 % of control | T/C [4]: 100 % of control | T/C [6]: 100 % of control

CCCN=C(N)c1ccc(NC(=O)c2ccc(C(=O)Nc3ccc(C(N)=NCCC)cc3)cc2)cc1
T/C (dose: 0.5 mg/kg/injection, schedule: Q04DX003 (ip), vehicle: saline with Tween-80): 115 % of control | T/C (dose: 1.0 mg/kg/injection, schedule: Q04DX003 (ip), vehicle: saline with Tween-80): 120 % of control | T/C (dose: 14.0 mg/kg/injection, schedule: Q04DX003 (ip), vehicle: saline with Tween-80): 163 % of control | T/C (dose: 21.0 mg/kg/injection, schedule: Q04DX003 (ip), vehicle: saline with Tween-80): 163 % of control | T/C (dose: 33.0 mg/kg/injection, schedule: Q04DX003 (ip), vehicle: saline with Tween-80): 159 % of control and 200 % of control | T/C (dose: 50.0 mg/kg/injection, schedule: Q04DX003 (ip), vehicle: saline with Tween-80): 172 % of control and 204 % of control | T/C (dose: 75.0 mg/kg/injection, schedule: Q04DX003 (ip), vehicle: saline with Tween-80): 159 % of control | T/C [5]: 190 % of control | T/C [7]: 118 % of control

O=[N+]([O-])CC(O)c1ccc2ccccc2n1 (stereo not drawn)
T/C [8]: 86 % of control | T/C [1]: 86 % of control | T/C [9]: 109 % of control | T/C [2]: 89 % of control | T/C (dose: 100.0 mg/kg/injection, schedule: Q04DX003 (ip), vehicle: saline): 95 % of control | T/C (dose: 200.0 mg/kg/injection, schedule: Q04DX003 (ip), vehicle: saline): 90 % of control

C=CCCCCC/C=C/CCCCCC
T/C (dose: 75.0 mg/kg/injection, schedule: Q01DX010 (ip), vehicle: saline with Tween-80): 90 % of control | T/C (dose: 150.0 mg/kg/injection, schedule: Q01DX010 (ip), vehicle: saline with Tween-80): 122 % of control

CC(=O)OC1(C)CC(C)(C)N=N1 (stereo not drawn)
T/C (dose: 25.0 mg/kg/injection, schedule: Q01DX005 (ip), vehicle: water): 107 % of control | T/C (dose: 50.0 mg/kg/injection, schedule: Q01DX005 (ip), vehicle: water): 105 % of control | T/C (dose: 100.0 mg/kg/injection, schedule: Q01DX005 (ip), vehicle: water): 105 % of control | T/C (dose: 200.0 mg/kg/injection, schedule: Q01DX005 (ip), vehicle: water): 114 % of control | T/C (dose: 400.0 mg/kg/injection, schedule: Q01DX005 (ip), vehicle: water): 107 % of control

O=C1c2ccccc2C(=O)N1CC#CCN1C(=O)c2ccccc2C1=O
T/C (dose: 75.0 mg/kg/injection, schedule: Q01DX009 (ip), vehicle: saline with Tween-80): 115 % of control | T/C (dose: 150.0 mg/kg/injection, schedule: Q01DX009 (ip), vehicle: saline with Tween-80): 90 % of control | T/C (dose: 300.0 mg/kg/injection, schedule: Q01DX009 (ip), vehicle: saline with Tween-80): 97 % of control

O=[N+]([O-])c1ccc(NCc2ccccc2)c2c1no[n+]2[O-]
T/C (dose: 35.0 mg/kg/injection, schedule: Q01DX009 (ip), vehicle: saline with Tween-80): 92 % of control | T/C (dose: 70.0 mg/kg/injection, schedule: Q01DX009 (ip), vehicle: saline with Tween-80): 91 % of control | T/C (dose: 140.0 mg/kg/injection, schedule: Q01DX009 (ip), vehicle: saline with Tween-80): 92 % of control

CC(CCCSC(=N)N)SC(=N)N (stereo not drawn)
T/C [10]: 103 % of control | T/C [8]: 96 % of control and 105 % of control | T/C [1]: 97 % of control and 122 % of control | T/C [2]: 102 % of control and 103 % of control

CN(C)CCCN1c2ccccc2Sc2ccc(Cl)cc21
T/C (dose: 6.25 mg/kg/injection, schedule: Q01DX009 (ip), vehicle: saline): 109 % of control | T/C [10]: 109 % of control | T/C (dose: 12.5 mg/kg/injection, schedule: Q04DX003 (ip), vehicle: saline with Tween-80): 104 % of control | T/C [11]: 106 % of control | T/C (dose: 25.0 mg/kg/injection, schedule: Q04DX003 (ip), vehicle: saline with Tween-80): 108 % of control | T/C [12]: 89 % of control | T/C [9]: 112 % of control

O=C(O)CCCCCCCCCCCCO
T/C (dose: 100.0 mg/kg/injection, schedule: Q04DX003 (ip), vehicle: Klucel (hydroxypropylcellulose) (HPC)): 109 % of control | T/C (dose: 200.0 mg/kg/injection, schedule: Q04DX003 (ip), vehicle: Klucel (hydroxypropylcellulose) (HPC)): 90 % of control | T/C (dose: 400.0 mg/kg/injection, schedule: Q04DX003 (ip), vehicle: Klucel (hydroxypropylcellulose) (HPC)): 90 % of control

C[P+](c1ccc(Cl)cc1)(c1ccc(Cl)cc1)c1ccc(Cl)cc1
T/C (dose: 6.25 mg/kg/injection, schedule: Q04DX003 (ip), vehicle: saline): 100 % of control | T/C [11]: 104 % of control | T/C [12]: 109 % of control
